“Also recorded” adds a separate entry of the source.
Legend:
[1] = test system: U87 glioma human xenografts; experiment: Biodistribution in U87 human glioblastoma-bearing BALB/c nude mice; type: in vivo; details: for Tumour/brain ratio: U87 glioma, 60 min post injection; for Tumour uptake: U87 xenografts, 60 min post-radiotracer injection
Experimental: (§1) All animal experiments were performed by licensed investigators in accordance with the United Kingdom Home Office Guidance on the Operation of the Animal (Scientific Procedures) Act 1986 and within the published guidelines for the welfare and use of animals in cancer research.^22 EMT6 tumour cells (2×10^6; 100 μL PBS) were injected subcutaneously on the back of female BALB/c mice (aged 6-8 weeks; Charles River) and grown to ˜150 mm^3. U87 tumours were grown following subcutaneous injection of 5×10^6 cells (100 μL PBS) on the back of female BALB/c nude mice (aged 6-8 weeks; Charles River), with BT474 tumours induced following injection of 5×10^6 cells in matrigel (BD Biosciences; 1:1 ratio PBS-to-matrigel; 100 μL total). Tumour dimensions were measured periodically using a caliper and tumour volumes were calculated by the equation: volume=(π/6)×a×b×c, where a, b, and c represent three orthogonal axes of the tumour. Inflammation was performed in an aseptic inflammation model as previously described.^23
(§2) [^18F]FDMP (˜3.7 MBq) was injected via the tail vein of anaesthetized EMT6 tumour-bearing BALB/c mice. The mice were maintained under anesthesia and sacrificed by exsanguination via cardiac puncture at 2, 15, 30, 60, 120 or 180 min post radiotracer injection and tissues harvested. Biodistribution studies with BT474 and U87 tumour-bearing nude mice were performed 60 min post [^18F]FDMP injection. Tissue radioactivity was determined on a gamma counter (Cobra II Auto-Gamma counter, Packard Biosciences Co.) and decay corrected. 10 μL standards from a 1:100 dilution of the stock activity were also counted for data normalization. Plasma was obtained from terminal blood samples following centrifugation (14000 g, 5 min). Data were expressed as percent injected dose per gram of tissue (% ID/g).

EMT6 tumours = experiment: PET imaging of EMT6 tumour-bearing mice; type: in vivo; details: 60 min
Experimental: All animal experiments were performed by licensed investigators in accordance with the United Kingdom Home Office Guidance on the Operation of the Animal (Scientific Procedures) Act 1986 and within the published guidelines for the welfare and use of animals in cancer research.^22 EMT6 tumour cells (2×10^6; 100 μL PBS) were injected subcutaneously on the back of female BALB/c mice (aged 6-8 weeks; Charles River) and grown to ˜150 mm^3. […] Tumour dimensions were measured periodically using a caliper and tumour volumes were calculated by the equation: volume=(π/6)×a×b×c, where a, b, and c represent three orthogonal axes of the tumour. […]
[^18F]FDMP imaging scans were carried out on a GENISYS^4 small animal PET scanner (Sofie Biosciences), following a bolus i.v. injection of ˜1.85 MBq of the radiotracer into tumour-bearing mice. […] Tumour radioactivity were normalized to that of the whole body to obtain the normalized uptake value (NUV) to permit comparison of data obtained using the two scanners.
Dynamic [^18F]FDMP imaging scans were carried outa dedicated small animal PET scanner (Siemens Inveon PET module, Siemens Medical Solutions USA, Inc., Malvern, Pa., USA) following a bolus i.v. injection of ˜3.7 MBq of the radiotracer into tumour-bearing mice. […] The count densities were averaged for all VOIs at each time point to obtain a time versus radioactivity curve (TAC). […]

[2] = test system: DU145 prostate adenocarcinoma tumours; experiment: PET imaging of DU145 tumour-bearing mice; type: in vivo; details: for Tumour visibility by PET: DU145, 50-60 min static scans; for Tumour to whole body normalized uptake: 50-60 min static scans
Experimental: [^18F]FDMP imaging scans were carried out on a GENISYS^4 small animal PET scanner (Sofie Biosciences), following a bolus i.v. injection of ˜1.85 MBq of the radiotracer into tumour-bearing mice. Static scans were acquired for 10 min and images were reconstructed using maximum-likelihood expectation maximization. In a different cohort of mice, dynamic PET imaging was performed on a Siemens Inveon PET module, (Siemens Medical Solutions USA) as described in supplementary materials. Dynamic PET imaging was performed for the [^18F]FDMP and [^18F]FDG comparison study in EMT6 tumour-bearing mice. Static scans on the GENISYS^4 were used for all other experiments. Siemens Inveon Research Workplace software was used for visualization of radiotracer uptake in the tumour and to define the three-dimensional volumes of interest (VOI). Tumour radioactivity were normalized to that of the whole body to obtain the normalized uptake value (NUV) to permit comparison of data obtained using the two scanners.

[3] = test system: Turpentine-induced inflammatory tissue; experiment: Aseptic inflammation model biodistribution; type: in vivo; details: for Inflammation-to-muscle ratio: in vivo; for Accumulation in chemically-induced inflammatory tissues: turpentine-treated muscle
Experimental: as §1, §2

BT474 cells = experiment: Metabolism experiments in cells (LC-MS); type: cell-based, human
Experimental: (§3) EMT6 murine breast cancer cells (LGC Standards) were grown in Waymouth's medium (Life Technologies), with U87 human glioma cells (LGC Standards) grown in DMEM medium (Life Technologies). DU145 (kind donation from Dr. Almut Schulze, CRUK London Research Institute) and BT474 (LGC Standards) were grown in RPMI (Life Technologies). All media were supplemented with 2.5 mL penicillin/streptomycin (10,000 IU·mL^−1/10,000 […]) and 2 mM L-glutamine (Life Technologies). Waymouth's medium contained 15% fetal calf serum (FCS), with 10% FCS added to DMEM and RPMI. All cells were propagated at 37° C. in a humidified atmosphere containing 5% CO2.
BT474 cells were seeded in 12-well plates at 2×10^5 cells per well. For measurement of FDMP uptake, the media was replaced with media supplemented with 500 μM FDMP and incubated for the indicated times. All media samples were harvested at the same time and immediately diluted into ice-cold extraction solution of methanol, acetonitrile, and water (5:3:2) (All chemicals were purchased from Fisher Scientific and were LC-MS grade). Cell numbers were assumed to be identical. The amount of extraction solution added to each well was determined by cell counts obtained from a counting plate run in parallel (1 mL/2×10^6 cells). Extracts were vortexed for 10 min at 4° C. and then centrifuged at 16,500 g at 4° C. for 15 min. Supernatants were removed and analyzed by LC-MS (ZIC-pHelic HPLC columns and Exactive Plus Orbitrap MS (ThermoScientific). Data was analyzed using Xcalibur and LCQuan software (ThermoScientific). FDMP and FAC standards were run in isolation for quantification.

[4] = test system: EMT6 murine breast cancer cells; experiment: [18F]FDMP uptake in cells (gamma counting); type: cell-based
Experimental: as §3
EMT6 cells (2×10^5) were plated into 6-well plates overnight prior to analysis. On the day of the experiment fresh growth medium containing 0.74 MBq [^18F]FDMP were added to individual wells (1 mL/well). Cell uptake was measured over 60 min post radiotracer addition. Plates were placed on ice, washed 3 times with ice-cold PBS and lysed in RIPA buffer (Thermo Fisher Scientific Inc.; 1 mL, 10 min). Cell lysates were transferred to counting tubes and decay-corrected radioactivity was determined on a gamma counter (Cobra II Auto-Gamma counter, Packard Biosciences Co.). Aliquots were snap-frozen and used for protein determination following radioactive decay using a BCA 96-well plate assay (Thermo Fisher Scientific Inc.). In addition, 10 μL standards from a 0.74 MBq/mL stock solution were counted to quantitate % radiotracer uptake. For carnitine treatment, cells were incubated with 10 μM L-carnitine for the duration of the uptake time course.

[5] = test system: EMT6 murine breast adenocarcinoma xenografts; experiment: Biodistribution time course in EMT6 tumour-bearing BALB/c mice; type: in vivo
Experimental: as §1, §2

BT474 tumours = experiment: Biodistribution in BT474 tumour-bearing nude mice; type: in vivo, BALB/c nude mice; details: 60 min post injection
Experimental: as §1, with “Inflammation was performed in an aseptic inflammation model as previously described.^23” left out
[^18F]FDMP (˜3.7 MBq) was injected via the tail vein of anaesthetized EMT6 tumour-bearing BALB/c mice. […] Tissue radioactivity was determined on a gamma counter (Cobra II Auto-Gamma counter, Packard Biosciences Co.) and decay corrected. 10 μL standards from a 1:100 dilution of the stock activity were also counted for data normalization. […] Data were expressed as percent injected dose per gram of tissue (% ID/g).

[6] = In vivo radiotracer stability and metabolism (radio-HPLC of tissue extracts); parameters: species or system BALB/c non-tumour-bearing mice
Experimental: Radiolabeled metabolites from plasma and tissues were quantified using an adapted method.^24 BALB/c non-tumour-bearing mice under general anesthesia (2.5% isofluorane; non-recovery anesthesia) were administered a bolus i.v. injection of [^18F]FDMP (˜7.4 MBq), and sacrificed by exsanguination via cardiac puncture 30 min post radiotracer injection. Heart, urine and liver samples were immediately snap-frozen in liquid nitrogen. Aliquots of heparinized blood were rapidly centrifuged (14000 g, 5 min, 4° C.) to obtain plasma. Plasma samples were subsequently snap-frozen in liquid nitrogen and kept on dry ice prior to analysis. For analysis, samples were thawed and kept at 4° C. immediately before use. To ice cold plasma and urine (200 μL) was added ice-cold methanol (600 μL) and the resulting suspension centrifuged (14000 g; 4° C.; 3 min). 300 μL of the resulting supernatant was added to 1 mL ice cold mobile phase. […] Samples were analyzed on an Agilent 1100 series HPLC system (Agilent Technologies, Santa Clara, Calif., USA), using an isocratic method of 10% MeOH in an ion pair buffer prepared as follows and a μBondapak C18 semi preparative HPLC column (Waters, Milford, Mass., USA; […]). […]

[7] = PET/CT imaging in healthy BALB/c mice; type: in vivo
[8] = test system: orthotopic U87 brain tumour; experiment: PET imaging in orthotopic U87 brain tumour model; type: in vivo; details: 15-30 min and 45-60 min post radiotracer injection
Experimental: FIG. 14. [^18F]FDMP and [^18F]FDG uptake in an orthotopic U87 brain tumour model. PET images were acquired 15-30 min and 45-60 min post radiotracer injection 6 weeks after intracranial injection of U87 glioma cells. White arrows indicate the tumour.
[^18F]FDMP and [^18F]FDG uptake in an orthotopic U87 brain tumour model was analysed (FIG. 14). […] The background is very low, so good staining is achieved.

tumour = details: cited from earlier work

## [^18F]2-fluoro-2-deoxyglucose [[^18F]FDG, reference compound]
[1]
  Tumour/brain ratio: 1.3
  Tumour uptake: 11.0±1.1 % ID/g
EMT6 tumours
  Tumour to whole body normalized uptake: 1.02±0.16 NUV
[2]
  Tumour visibility by PET: not visible above background
[2]; DU145 prostate tumours
  Tumour to whole body normalized uptake: 0.47±0.09 NUV
[3]
  Inflammation-to-muscle ratio: 2.66
  Accumulation in chemically-induced inflammatory tissues: 5.86±0.68 % ID/g

## O=C(O)CF [[^19F]FAC, [^19F]fluroacetate, reference compound]
BT474 cells; 500 μM in medium, BT474 cells
  Intracellular metabolites observed by LC-MS: only the parent compound and [^19F]fluorocitrate were observed
BT474 cells; BT474 cells, LC-MS
  Effect on intracellular metabolite pools (citrate, cis-aconitate, alpha-ketoglutarate): significant increase in citrate and cis-aconitate, together with significant decrease in alpha-ketoglutarate

## CC(C)(CF)C(=O)O [[^19F]FDMP]
BT474 cells; 500 μM in medium
  Uptake by BT474 cells detected by mass spectrometry: rapidly taken up
BT474 cells; 500 μM in medium, BT474 cells
  Intracellular metabolites observed by LC-MS: no other metabolites were observed

## CC(C)(C[18F])C(=O)O [[^18F]FDMP, [^18F]3-fluoro-2,2-dimethylpropanoic acid]
[4]; 30 min of incubation
  Uptake into EMT6 tumour cells: 1.40±0.10 % radioactivity/mg protein
[4]; 60 min post radiotracer addition (plateau)
  Uptake into EMT6 tumour cells: 1.47±0.04 % radioactivity/mg protein
[4]; incubation with 10 μM L-carnitine
  Uptake increase compared to control cells: 44%
[5]; 2, 15, 30 and 60 minutes after administration
  Bone uptake: low bone uptake
[5]; EMT6, after 60 minutes
  Tumour to blood ratio: up to 2.32
[5]; EMT6 tumour, 30 min post injection
  Tumour-associated radioactivity: 9.3±1.0 % ID/g
[5]; EMT6 tumour, 120 min post radiotracer injection
  Tumour-associated radioactivity: 9.8±2.0 % ID/g
[5]; EMT6 tumour, 180 min
  Tumour-associated radioactivity: 6.3±0.7 % ID/g
[5]; EMT6 tumour, by 180 min
  Reduction of tumour-associated radioactivity: 36%
[5]; EMT6 tumours, 60 min post injection
  Tumour radioactivity: 9.1±0.5 % ID/g
[5]; gamma counting and dynamic PET
  Blood-brain barrier passage: able to cross the blood-brain barrier; also recorded: passes the blood brain barrier
BT474 tumours
  Tumour radioactivity: 7.6±1.2 % ID/g
[1]
  Tumour/brain ratio: 2.5
  Tumour uptake: 9.35±1.0 % ID/g
[1]; compared with [18F]FDG
  Uptake in the normal brain: significantly lower than [^18F]FDG
[6]; 30 min post injection
  Stability in plasma, liver and heart by radioHPLC: no degradation; also recorded: only peaks of the parent compound detectable
[6]; urine, 30 min
  Parent peak fraction in urine: 61.8±6.6 % radioactivity
EMT6 tumours
  Tumour to whole body normalized uptake: 1.15±0.13 NUV
[2]
  Tumour visibility by PET: clearly discernable
[2]; DU145 prostate tumours
  Tumour uptake higher than [18F]FDG: 54%
  Tumour to whole body normalized uptake: 0.73±0.07 NUV
[3]
  Inflammation-to-muscle ratio: 2.36
  Accumulation in chemically-induced inflammatory tissues: 6.53±1.13 % ID/g
[7]
  Defluorination of the tracer (retention in bones): no defluorination
[8]
  Tumour staining in PET images: good staining of the U87 tumour was visible

## CC([18F])C(=O)O (centres unmarked) [[^18F]FPA, [^18F]2-fluoropropionic acid]
tumour; 60 minutes post-injection
  Tumour-to-brain ratio: 1.27
tumour; Table 1 in reference 28
  Tumour to blood ratio: 1.03

Source: patent publication US10213516B2, “Labelled carboxylic acids and their uses in molecular imaging” (Imperial Innovations Limited, priority 2013, dated 2019)
